Assay results reported in patent publication US20050026949A1, “Methods of therapeutic treatment using amounts of retinoids without regard to body weight” (Allergan, Inc., priority 2003, published 2005).

Assays:
[1] = tested on: patients treated for psoriasis; assay: Phase 3 studies of orally administered tazarotene for psoriasis: adverse events (Table 1); type: in vivo, human; details: Taz 4.5 mg
Method: A series of Phase 3 studies are conducted on orally administered tazarotene for the treatment of psoriasis. Adverse events (side effects) are monitored. In addition, published data for acitretin's side effects are also considered.

patients = assay: Two placebo-controlled 24-week safety studies of oral tazarotene plus dose-response evaluations (Example 3); type: in vivo, human
Method: Two multicenter, double-blind, randomized, placebo-controlled 24-week studies of identical design are conducted to evaluate the safety of oral tazarotene. In addition, 16- to 24-week dose-response evaluations are performed.
In the two safety trials, the incidence of adverse side effects with a 4.5 mg dose administered orally once daily is compared to the incidence of the same side effects with a placebo. […] The majority of these were mild in severity and typical of adverse effects associated with oral retinoids.

[2] = tested on: patients with moderate to very severe plaque psoriasis; assay: Open-label extension study of oral tazarotene (Example 4); type: in vivo, human
Method: Two multicenter, double-blind, placebo-controlled studies ware conducted to evaluate the efficacy and safety of oral tazarotene (4.5 mg once daily) in patients with moderate to very severe plaque psoriasis. […] Efficacy evaluations include overall lesional assessment (OLA), percent body surface area involvement, global response to treatment, plaque elevation, scaling, and erythema. OLA is graded on a 6-point scale (0=none, 1=minimal, 2=mild, 3=moderate, 4=severe, 5=very severe).

[3] = tested on: patients treated for acne; assay: Studies of orally administered tazarotene for acne: adverse events (Table 2); type: in vivo, human; details: combined data from Studies 1 and 2 (N = 223)
Method: Studies are conducted on orally administered tazarotene for the treatment of acne. Adverse events (side effects) are monitored.

[4] = tested on: patient with severe psoriasis; assay: Patient with severe psoriasis taking Ortho-Novum treated with tazarotene (Example 9); type: in vivo, human
From the text: The patient presents symptoms of severe psoriasis. The symptoms include lesions approximately 4 to 10 centimeters across appearing as raised patches of wine red skin many of which are covered in silvery white scales. The lesions are mostly dry and rough, and quite often noticeably warm to the touch. The lesions are present on the elbows, knees, scalp, and groin area. The patient experiences intense burning and itching associated with the lesions.
The patient is currently taking Ortho-Novum® for contraception.
Tazarotene at a dose of 6 mg per day is prescribed.

AP1 = AP1 antagonism
[5] = tested on: patients with moderate to very severe plaque psoriasis; assay: Open-label extension study of oral tazarotene (Example 4); type: in vivo, human; details: 4.5 mg once daily, 12-week extension treatment period, both groups
[6] = Study 3, treated with Tazarotene for 3 months (N = 220)
[7] = Study 3, treated with Tazarotene for 6 months (N = 92)
[8] = combined data from Studies 1 and 2 (N = 348)
[9] = 4.5 mg orally once daily, placebo 0%
[10] = 4.5 mg orally once daily, placebo 1%
[11] = 4.5 mg orally once daily, placebo 2%
[12] = 4.5 mg orally once daily, placebo 3%
[13] = 4.5 mg orally once daily, placebo 8%
[14] = 4.5 mg orally once daily, placebo <1%
[15] = 4.5 mg once daily, 12-week extension treatment period, both groups
[16] = 4.5 mg once daily, extension study

## CCOC(=O)c1ccc(C#Cc2ccc3c(c2)C(C)(C)CCS3)nc1 [tazarotene]
[1]; [6]
  Alopecia: 1 (0.5) NUMBER OF (%) OF PATIENTS
  Arthralgia: 28 (12.7) NUMBER OF (%) OF PATIENTS
  Atrophy of skin: 0 (0.0) NUMBER OF (%) OF PATIENTS
  Back pain: 7 (3.2) NUMBER OF (%) OF PATIENTS
  Cheilitis: 149 (67.7) NUMBER OF (%) OF PATIENTS
  Dry Skin: 47 (21.4) NUMBER OF (%) OF PATIENTS
  Dry mouth/Oral dryness: 11 (5.0) NUMBER OF (%) OF PATIENTS
  Epistaxis: 1 (0.5) NUMBER OF (%) OF PATIENTS
  Erythematous rash/Erythema: 0 (0.0) NUMBER OF (%) OF PATIENTS
  Hyperesthesia: 0 (0.0) NUMBER OF (%) OF PATIENTS
  Nail Disorder: 1 (0.5) NUMBER OF (%) OF PATIENTS
  Paresthesia: 3 (1.4) NUMBER OF (%) OF PATIENTS
  Paronychia/Nail disorder: 1 (0.5) NUMBER OF (%) OF PATIENTS
  Pruritus: 11 (5.0) NUMBER OF (%) OF PATIENTS
  Rhinitis: 0 (0.0) NUMBER OF (%) OF PATIENTS
  Rigors/Chills: 1 (0.5) NUMBER OF (%) OF PATIENTS
  Skin peeling/Desquamation: 3 (1.4) NUMBER OF (%) OF PATIENTS
  Sticky skin/Skin disorder: 0 (0.0) NUMBER OF (%) OF PATIENTS
  Xerophthalmia/Eye disorder: 3 (1.4) NUMBER OF (%) OF PATIENTS
[1]; [7]
  Alopecia: 5 (5.4) NUMBER OF (%) OF PATIENTS
  Arthralgia: 30 (32.6) NUMBER OF (%) OF PATIENTS
  Atrophy of skin: 0 (0.0) NUMBER OF (%) OF PATIENTS
  Back pain: 10 (10.9) NUMBER OF (%) OF PATIENTS
  Cheilitis: 65 (70.7) NUMBER OF (%) OF PATIENTS
  Dry Skin: 24 (26.1) NUMBER OF (%) OF PATIENTS
  Dry mouth/Oral dryness: 2 (2.2) NUMBER OF (%) OF PATIENTS
  Epistaxis: 0 (0.0) NUMBER OF (%) OF PATIENTS
  Erythematous rash/Erythema: 0 (0.0) NUMBER OF (%) OF PATIENTS
  Hyperesthesia: 0 (0.0) NUMBER OF (%) OF PATIENTS
  Nail Disorder: 1 (1.1) NUMBER OF (%) OF PATIENTS
  Paresthesia: 1 (1.1) NUMBER OF (%) OF PATIENTS
  Paronychia/Nail disorder: 1 (1.1) NUMBER OF (%) OF PATIENTS
  Pruritus: 3 (3.3) NUMBER OF (%) OF PATIENTS
  Rhinitis: 0 (0.0) NUMBER OF (%) OF PATIENTS
  Rigors/Chills: 1 (1.1) NUMBER OF (%) OF PATIENTS
  Skin peeling/Desquamation: 1 (1.1) NUMBER OF (%) OF PATIENTS
  Sticky skin/Skin disorder: 0 (0.0) NUMBER OF (%) OF PATIENTS
  Xerophthalmia/Eye disorder: 1 (1.1) NUMBER OF (%) OF PATIENTS
[1]; [8]
  Alopecia: 1 (0.3) NUMBER OF (%) OF PATIENTS
  Arthralgia: 60 (17.2) NUMBER OF (%) OF PATIENTS
  Atrophy of skin: 0 (0.0) NUMBER OF (%) OF PATIENTS
  Back pain: 16 (4.6) NUMBER OF (%) OF PATIENTS
  Cheilitis: 228 (65.5) NUMBER OF (%) OF PATIENTS
  Dry Skin: 82 (23.6) NUMBER OF (%) OF PATIENTS
  Dry mouth/Oral dryness: 11 (3.2) NUMBER OF (%) OF PATIENTS
  Epistaxis: 2 (0.6) NUMBER OF (%) OF PATIENTS
  Erythematous rash/Erythema: 2 (0.6) NUMBER OF (%) OF PATIENTS
  Hyperesthesia: 0 (0.0) NUMBER OF (%) OF PATIENTS
  Nail Disorder: 2 (0.6) NUMBER OF (%) OF PATIENTS
  Paresthesia: 7 (2.0) NUMBER OF (%) OF PATIENTS
  Paronychia/Nail disorder: 2 (0.6) NUMBER OF (%) OF PATIENTS
  Pruritus: 21 (6.0) NUMBER OF (%) OF PATIENTS
  Rhinitis: 8 (2.3) NUMBER OF (%) OF PATIENTS
  Rigors/Chills: 9 (2.6) NUMBER OF (%) OF PATIENTS
  Skin peeling/Desquamation: 3 (0.9) NUMBER OF (%) OF PATIENTS
  Sticky skin/Skin disorder: 1 (0.3) NUMBER OF (%) OF PATIENTS
  Xerophthalmia/Eye disorder: 8 (2.3) NUMBER OF (%) OF PATIENTS
patients; 4.5 mg (n=348)
  incidence of patients discontinuing due to adverse effects: 3%
patients; 4.5 mg orally once daily vs placebo
  incidence of ocular, auditory, or thyroid problems: no statistically significant between-group difference
patients; [9]
  incidence of agitation: < 1%
  incidence of dermatitis: 1%
  incidence of hyperglycemia: 2%
patients; [10]
  incidence of foot pain: 3%
  incidence of joint disorder: 4%
  incidence of nasal dryness: 4%
  incidence of rash: 3%
patients; [11]
  incidence of altered hormone levels (elevated TSH and T4, decreased T4, abnormal thyroid function test): 0%
  incidence of depression: 1%
patients; [12]
  incidence of back pain: 7%
  incidence of emotional lability: 3%
patients; [13]
  incidence of arthralgia: 17%
  incidence of myalgia: 14%
patients; 4.5 mg orally once daily, placebo 12%
  incidence of headache: 19%
patients; 4.5 mg orally once daily, placebo 15%
  incidence of dry skin: 24%
patients; 4.5 mg orally once daily, placebo 17%
  incidence of cheilitis: 66%
patients; [14]
  incidence of anxiety: 1%
  incidence of psychosis: 0%
  incidence of psychotic depression: 0%
patients; 6.3 mg (n=16)
  incidence of patients discontinuing due to adverse effects: 13%
patients; 0.4 to 1.1 mg oral tazarotene (n=105)
  incidence of patients discontinuing due to adverse effects: approximately 2%
patients; 2.1 to 2.8 mg oral tazarotene (n=21)
  incidence of patients discontinuing due to adverse effects: 10%
patients; w.2 mg (n=14)
  incidence of patients discontinuing due to adverse effects: 0%
[2]; [15]
  incidence of arthralgia: 20%
  incidence of cheilitis: 70%
  incidence of dry skin: 25%
  incidence of hypertriglyceridemia: 6%
[2]; 4.5 mg once daily, end of the 12-week treatment period
  patients with clinical success (2-grade reduction in OLA): 28%
[2]; [16]
  changes in liver function test values or cholesterol levels: no clinically significant changes
  serious adverse events: no serious adverse events considered related to the study treatment
[2]; end of the 12-week post-treatment period
  patients with clinical success (2-grade reduction in OLA): 16%
[3]
  Cheilitis: 134 (60.1) NUMBER OF (%) OF PATIENTS
  Conjunctivitis: 0 (0.0) NUMBER OF (%) OF PATIENTS
  Desquamation central face/Desquamation: 1 (0.4) NUMBER OF (%) OF PATIENTS
  Dry Skin: 79 (35.4) NUMBER OF (%) OF PATIENTS
  Dry nose: 7 (3.1) NUMBER OF (%) OF PATIENTS
  Epistaxis: 6 (2.7) NUMBER OF (%) OF PATIENTS
  Fingertip peeling/Desquamation: 1 (0.4) NUMBER OF (%) OF PATIENTS
  Headache: 26 (11.7) NUMBER OF (%) OF PATIENTS
  Irritation of eyes: 0 (0.0) NUMBER OF (%) OF PATIENTS
  Joint pain/Arthralgia: 18 (8.1) NUMBER OF (%) OF PATIENTS
  Peeling/Desquamation: 1 (0.4) NUMBER OF (%) OF PATIENTS
  Pruritus: 10 (4.5) NUMBER OF (%) OF PATIENTS
  Rash-dermatitis/Rash: 7 (3.1) NUMBER OF (%) OF PATIENTS
  Red Scaly face/Desquamation: 1 (0.4) NUMBER OF (%) OF PATIENTS
  Skin fragility/Skin disorder: 1 (0.4) NUMBER OF (%) OF PATIENTS
[4]; 6 mg per day, after 30 days
  psoriasis symptoms and lesions: symptoms of itching and burning are relieved and the severity of their lesions are substantially lessened
[4]; tazarotene 6 mg per day with Ortho-Novum
  serum FSH and LH levels: remain within the normal ranges
AP1
  AP1 antagonism: potent AP1 antagonist
[5]
  incidence of asthenia: 6%
  incidence of back pain: 11%
  incidence of headache: 11%
  incidence of infection: 10%
  incidence of myalgia: 15%
